Assay results as given in patent US20180228826A1, “FIXED-DOSE COMBINATIONS OF ANTIVIRAL COMPOUNDS” (priority 2015, published 2018).
Like-named read-outs stand apart in the source and are kept apart here.

Experiments:
[1] = solubility in simulated fasted-state intestinal fluid; assay type: physicochemical; details: fassif
Procedure: (§1) Even in its amorphous state, the apparent solubility of neat amorphous Compound […] in simulated fasted-state intestinal fluid is 50 μg/mL after two hours of equilibration. In order to enable absorption of Compound III, solid dispersion formulations of Compound III were formulated at a drug loading less than or equal to 40% in combination with absorption-enhancing polymers and surfactants as described in U.S. Provisional Patent Application No. 61/936,019, filed Feb. 5, 2014; PCT International Patent Application Nos. PCT/US2015/014195 and PCT/US2015/014201, filed Feb. 3, 2015.

[2] = human clinical trial, pharmacokinetics of Tablet Formulation 6 and Tablet Formulation 7, fasted and fed; details: in vivo, GM; for AUC(0-t): read-out: AUC0-24 hr
[3] = log D of Compound III; assay type: physicochemical; details: pH=7
Procedure: as §1

[4] = administered as Tablet Formulation 6, single dose of two tablets, Fasted
[5] = administered as Tablet Formulation 6, single dose of two tablets, Fed (High-Fat Meal)
[6] = administered as Tablet Formulation 7, single dose of two tablets, Fasted
[7] = administered as Tablet Formulation 7, single dose of two tablets, Fed (High-Fat Meal)
[8] = oral, administered as Tablet Formulation 6, single dose of two tablets, Fasted
[9] = oral, administered as Tablet Formulation 6, single dose of two tablets, Fed (High-Fat Meal)
[10] = oral, administered as Tablet Formulation 7, single dose of two tablets, Fasted
[11] = oral, administered as Tablet Formulation 7, single dose of two tablets, Fed (High-Fat Meal)

Structure (SMILES)	AUC(0-inf) [2, 8]	Cmax [2, 8]	AUC(0-t) [2, 8]	AUC(0-inf) [2, 9]	Cmax [2, 9]	AUC(0-t) [2, 9]	AUC(0-inf) [2, 10]	Cmax [2, 10]	AUC(0-t) [2, 10]	AUC(0-inf) [2, 11]	Cmax [2, 11]	AUC(0-t) [2, 11]	other results
CC(C)OC(=O)[C@@H](C)NP(=O)(OC[C@H]1O[C@@H](n2ccc(=O)[nH]c2=O)[C@](C)(Cl)[C@@H]1O)Oc1ccccc1 (stereo partly drawn) [Compound I, (2R)-isopropyl 2-(((((2R,3R,4R,5R)-4-chloro-5-(2,4-dioxo-3,4-dihydropyrimidin-1(2H)-yl)-3-hydroxy-4-methyltetrahydrofuran-2-yl)methoxy)(phenoxy)phosphoryl)amino)propanoate]	–	–	–	–	–	–	–	–	–	–	–	–	solubility at 2 h ([1]; thermodynamic from solid, after two hours of equilibration, read-out: apparent solubility of neat amorphous compound): 50 µg/mL; AUC(0-inf) [2, 4]: 2.73 µM·h; Cmax [2, 4]: 900 nM; AUC(0-t) [2, 4]: 2.63 µM·h; AUC(0-inf) [2, 5]: 3.91 µM·h; Cmax [2, 5]: 1420 nM; AUC(0-t) [2, 5]: 3.85 µM·h; AUC(0-inf) [2, 6]: 3.01 µM·h; Cmax [2, 6]: 897 nM; AUC(0-t) [2, 6]: 2.91 µM·h; AUC(0-inf) [2, 7]: 4.08 µM·h; Cmax [2, 7]: 1740 nM; AUC(0-t) [2, 7]: 4.36 µM·h
COC(=O)N[C@H](C(=O)N1CCC[C@H]1c1ncc(-c2cc(F)c3c(c2)O[C@@H](c2cnc(C4CC4)s2)n2c-3cc3cc(-c4cnc([C@@H]5CCCN5C(=O)[C@@H](NC(=O)OC)C(C)C)[nH]4)ccc32)[nH]1)C(C)C [Compound II, dimethyl ((2S,2′S)-((2S,2′S)-2,2′-(5,5′-((S)-6-(2-cyclopropylthiazol-5-yl)-1-fluoro-6H-benzo[5,6][1,3]oxazino[3,4-a]indole-3,10-diyl)bis(1H-imidazole-5,2-diyl))bis(pyrrolidine-2,1-diyl))bis(3-methyl-1-oxobutane-2,1-diyl))dicarbamate]	0.942 µM·h	57 nM	0.572 µM·h	1.11 µM·h	68.1 nM	0.658 µM·h	1.31 µM·h	77.2 nM	0.783 µM·h	1.2 µM·h	78.7 nM	0.716 µM·h	–
C=C[C@@H]1C[C@]1(NC(=O)[C@@H]1C[C@@H]2CN1C(=O)[C@H](C(C)(C)C)NC(=O)O[C@@H]1C[C@H]1CCCCCc1nc3ccc(OC)cc3nc1O2)C(=O)NS(=O)(=O)C1CC1 [Compound III, (1aR,5S,8S,10R,22aR)—N-[(1R,2S)-1-[(cyclopropylsulfonamido)carbonyl]-2-ethenylcyclopropyl]-14-methoxy-5-(2-methylpropan-2-yl)-3,6-dioxo-1,1a,3,4,5,6,9,10,18,19,20,21,22,22a-tetradecahydro-8H-7,10-methanocyclopropa[18,19][1,10,3,6]dioxadiazacyclononadecino[11,12-b]quinoxaline-8-carboxamide hydrate]	0.508 µM·h	25.6 nM	0.218 µM·h	0.628 µM·h	44.3 nM	0.33 µM·h	0.598 µM·h	31.2 nM	0.285 µM·h	0.733 µM·h	61.2 nM	0.38 µM·h	logD [3]: ~3; solubility [1]: < 7 µg/mL
